Measurements reported in patent US20220354811A1, “METHODS AND COMPOSITIONS FOR MODULATING MACROPHAGES POLARIZATION” (INSERM (INSTITUT NATIONAL DE LA SANTÉ ET DE LA RECHERCHE …, priority 2019, published 2022).

Legend:
[1] = tested on: human primary monocytes; assay: CSF-1-induced monocyte differentiation into macrophages (flow cytometry, CD71/CD163 and CD16/CD163 double positive cells); type: cell-based
Source text: FIG. 1. […] (A) Macrophagic differentiation of monocytes from 3 different healthy donors was examined by 3-color flow cytometric analysis. The results are expressed as percentage of CD71/CD163 or CD16/CD163 double positive cells and represent the mean±SD of 3 independent experiments performed in duplicate. (B) Cell death from 3 different healthy donors was examined by flow cytometry analysis. The results are expressed as percentage of AnnexinV/DAPI double positive cells and represent the mean±SD of 3 independent experiments performed in duplicate. n.s. denotes not statistically significant according to a paired student t test. *P<0.05, **P<0.01, ***P<0.001 according to a paired student t test (versus d2).
FIG. 2. […] Macrophagic differentiation of monocytes from 3 different healthy donors was examined by 3-color flow cytometric analysis. The results are expressed as percentage of CD71/CD163 or CD16/CD163 double positive cells and represent the mean±SD of 3 independent experiments performed in duplicate. n.s. denotes not statistically significant according to a paired student t test. *P<0.05, **P<0.01, ***P<0.001 according to a paired student t test (versus d2).
Human peripheral […] were obtained from healthy donors with informed consent following the Declaration of Helsinki according to recommendations of an independent scientific review board. The project has been validated by The Etablissement Francais du Sang, the French national agency for blood collection (protocol N°ALM/PLER/FO/001). Blood samples were collected using ethylene diamine tetraacetic acid-containing tubes. Mononucleated cells were first isolated using Ficoll Hypaque (Eurobio, CMSMSL0101). Then, we used the autoMACS® Pro Separator (Miltenyi, France) to perform cell enrichment. An initial positive selection, which included antibody targeting CD14, was used for monocyte enrichment (Miltenyi, 130-050-201). Purified monocytes from human were grown in RPMI 1640 medium with glutamax-I (Life Technologies, 61870044) supplemented with 10% (vol/vol) foetal bovine serum (Life Technologies). Macrophage differentiation was induced by adding into the culture medium 100 ng/mL CSF-1 and was visualized using standard optics (20x/0.35 Ph1) equipped with an AxioCam ERc camera (Zeiss, France). Phase images of the cultures were recorded with the Zen 2 software (Zeiss).
To analyze the macrophagic differentiation of monocytes, the cells were washed with ice-cold phosphate buffered saline (PBS, Life Technologies, 14190169), incubated at 4° C. for 10 min in PBS/bovine serum albumin (BSA 0.5%, Dutscher, 871002) with anti-CD16, anti-CD71 and anti-CD163 or isotype controls (Miltenyi and BD Biosciences, catalog numbers were 130-113-396, 130-097-628 and 551374). Finally, the cells were washed and fixed in 2% paraformaldehyde (EMS, 15710). To perform macrophage polarization, purified monocytes were plated at 0.3×10^6 per mL in RPMI 1640 medium with glutamax-I supplemented with 10% (vol/vol) fetal bovine serum plus CSF-1 for 5+2 days to differentiate into M0 macrophages. 20 ng/mL IL-4 (Miltenyi, 130-094-117) was added after 5 days of differentiation for two days to polarize into M2-macrophages. […] Fluorescence was measured with a MACSQuant® Analyzer (Miltenyi, Paris, France). […] Fluorescence was measured with a MACSQuant® Analyzer (Miltenyi, Paris, France). […]

[2] = molecular target: T1, caspase 3 (Homo sapiens, UniProt P42574); assay: Caspase 3 activity in untreated monocytes (Ac-DEVD-AMC substrate); type: cell-based; parameters: endogenous in cells; host or cells: primary human peripheral blood monocytes (CD14-selected, healthy donors); settings: all the concentrations tested, 1 day
T1 sequence (P42574 29-175 limits assumed): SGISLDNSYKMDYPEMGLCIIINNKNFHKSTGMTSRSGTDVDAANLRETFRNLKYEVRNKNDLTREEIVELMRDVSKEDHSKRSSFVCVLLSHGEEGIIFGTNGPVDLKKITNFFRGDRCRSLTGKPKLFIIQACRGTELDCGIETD
T1 sequence (P42574 176-277 limits assumed): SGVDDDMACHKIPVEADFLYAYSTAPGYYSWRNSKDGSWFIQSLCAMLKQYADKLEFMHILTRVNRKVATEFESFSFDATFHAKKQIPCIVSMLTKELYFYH
Experimental: FIG. 3. Both Q-VD-Oph and Emricasan hamper in the same way apoptosis in untreated monocytes. […] Measures of caspase-3 (DEVD-AMC) and caspase-8 (IETD-AMC) activities. The results are expressed as A.U./mg/min and represent the mean the mean±SD of 3 independent experiments performed in triplicate.
After stimulation, cells were lysed for 30 min at 4° C. in lysis buffer (50 mM HEPES pH 8, 150 mM NaCl, 20 mM EDTA, 1 mM PMSF, 10 μg/mL leupeptin, 10 μg/mL aprotinin and 0.2% Triton X-100) and lysates were cleared at 16 000 g for 15 min at 4° C. Each assay (in triplicate) was performed with 10 μg of protein prepared from control or stimulated cells. Briefly, cellular extracts were then incubated in a 96-well plate with 0.2 mM of DEVD-AMC (Caspase-3) or IETD-AMC (Caspase-8) as substrates for various times at 37° C. Caspase activity was measured either following emission at 460 nm (excitation at 390 nm) in the presence or not of 10 μM of DEVD-CHO or IETD-CHO. Enzyme activities were expressed in arbitrary units (A.U.) per min and per mg of proteins. The same protocol was used with 0.25 units of active recombinant caspase-8 (Enzo, ALX-201-062) or -3 (Enzo, ALX-201-059) in each triplicate.

SMILES	concentration range of dose-dependent inhibition of macrophagic differentiation ([1]; added at day 0 only, inhibition weak compared to Emricasan) [µM]	concentrations with significant inhibitory effect on monocyte differentiation ([1]; only when added twice (day 0 and day 1), several donors) [µM]	concentration necessary to achieve inhibition identical to Emricasan ([1]; same-experiment comparison, 2 successive treatments (days 0 and 1)) [µM]	caspase 3 activity in untreated monocytes [2]	concentrations with strong inhibitory effect on macrophagic differentiation ([1]; CSF-1 2 days, Emricasan added at day 0, three different donors) [µM]	concentration range that efficiently inhibited monocyte differentiation ([1]; same-experiment comparison, added only one time, CSF-1 2 days) [µM]
CC(C)[C@H](NC(=O)c1ccc2ccccc2n1)C(=O)N[C@@H](CC(=O)O)C(=O)COc1c(F)cccc1F [Q-VD-OPh]	75 to 125	100 to 125	100	efficiently inhibited		
C[C@H](NC(=O)C(=O)Nc1ccccc1C(C)(C)C)C(=O)N[C@@H](CC(=O)O)C(=O)COc1c(F)c(F)cc(F)c1F [Emricasan, (S)-3-((S)-2-(2-((2-(tert-Butyl)phenyl)amino)-2-oxoacetamido)propanamido)-4-oxo-5-(2,3,5,6-tetrafluorophenoxy)pentanoic acid]				efficiently inhibited	1 to 2	1.5 to 2.5
